Test results taken from ChEMBL document CHEMBL1201862, “PubChem BioAssay data set” (2004).
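Interpolation was linear, between the two tested concentrations surrounding the appropriate level; five concentrations were tested over 48 hours in 96-well plates. GI50: concentration for 50% inhibition of growth.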 Active and inactive are the calls of the source. Cut-off read from the data, not from the text of the source: active = GI50 up to about 1.1 µM and inactive = higher.

Experiments:
Assay in all cases: NCI-60 cell line screen, 48 h
HCC 2998 = system: HCC 2998
SF-539 = system: SF-539
SK-MEL-2 = system: SK-MEL-2
ACHN = system: ACHN
OVCAR-3 = system: OVCAR-3
OVCAR-5 = system: OVCAR-5
NCI-H226 = system: NCI-H226
SNB-75 = system: SNB-75
HOP-62 = system: HOP-62
CCRF-CEM = system: CCRF-CEM
UACC-62 = system: UACC-62
SK-OV-3 = system: SK-OV-3
M19-MEL = system: M19-MEL
UO-31 = system: UO-31
NCI-H460 = system: NCI-H460
U-251 = system: U-251
SK-MEL-5 = system: SK-MEL-5
HCT-15 = system: HCT-15

| Compound | GI50 (HCC 2998) | GI50 (SF-539) | GI50 (SK-MEL-2) | GI50 (ACHN) | GI50 (OVCAR-3) | GI50 (OVCAR-5) | GI50 (NCI-H226) | GI50 (SNB-75) | GI50 (HOP-62) | GI50 (CCRF-CEM) | GI50 (UACC-62) | GI50 (SK-OV-3) | GI50 (M19-MEL) | GI50 (UO-31) | GI50 (NCI-H460) | GI50 (U-251) | GI50 (SK-MEL-5) | GI50 (HCT-15) |
| --- | --- | --- | --- | --- | --- | --- | --- | --- | --- | --- | --- | --- | --- | --- | --- | --- | --- | --- |
| COc1cc(-c2cc(-c3cc([N+](=O)[O-])c(/C=N/NC(=O)c4ccncc4)o3)ccc2OC)ccc1C | > 100 µM (inactive) | > 100 µM (inactive) | > 100 µM (inactive) | > 100 µM (inactive) | > 100 µM (inactive) | > 100 µM (inactive) | > 100 µM (inactive) | > 100 µM (inactive) | > 100 µM (inactive) | > 10 µM (inactive) | > 100 µM (inactive) | > 100 µM (inactive) | > 100 µM (inactive) | – | – | – | – | – |
| CCc1cc(C)cc2[n+]1CC=C2.[O-][Cl+3]([O-])([O-])[O-] | 43.6 µM (inactive) | 26.7 µM (inactive) | 15.6 µM (inactive) | 10.4 µM (inactive) | – | 15.5 µM (inactive) | 15.7 µM (inactive) | 22.9 µM (inactive) | 18.7 µM (inactive) | – | – | – | 13.8 µM (inactive) | 16.9 µM (inactive) | 27.3 µM (inactive) | 39.5 µM (inactive) | – | – |
| N#CC1C(=O)NC(=O)C1=O (configuration not stated) | > 100 µM (inactive) | > 100 µM (inactive) | > 100 µM (inactive) | > 100 µM (inactive) | > 100 µM (inactive) | > 100 µM (inactive) | > 100 µM (inactive) | > 100 µM (inactive) | > 100 µM (inactive) | – | > 100 µM (inactive) | > 100 µM (inactive) | > 100 µM (inactive) | > 100 µM (inactive) | > 100 µM (inactive) | > 100 µM (inactive) | > 100 µM (inactive) | > 100 µM |
| CC12CC(=O)OC(Cc3ccccc31)O2 (configuration not stated) | > 100 µM (inactive) | > 100 µM (inactive) | > 100 µM (inactive) | > 100 µM (inactive) | > 100 µM (inactive) | – | > 100 µM (inactive) | > 100 µM (inactive) | > 100 µM (inactive) | > 100 µM (inactive) | > 100 µM (inactive) | > 100 µM (inactive) | > 100 µM (inactive) | > 100 µM (inactive) | > 100 µM (inactive) | > 100 µM (inactive) | – | – |
| CCOc1ccc(/C=N\N2C(=O)c3ccccc3C2=O)cc1 | > 100 µM (inactive) | > 100 µM (inactive) | > 100 µM (inactive) | > 100 µM (inactive) | > 100 µM (inactive) | > 100 µM (inactive) | > 100 µM (inactive) | > 100 µM (inactive) | > 100 µM (inactive) | > 100 µM (inactive) | > 100 µM (inactive) | – | > 100 µM (inactive) | > 100 µM (inactive) | > 100 µM (inactive) | – | > 100 µM (inactive) | > 100 µM |
| O=C(O)CC1CC=C[C@H]2c3cc4c(cc3C(=O)NC12)OCO4 (some centres not stated) | > 75 µM (inactive) | > 75 µM (inactive) | – | > 75 µM (inactive) | > 75 µM (inactive) | – | 44.7 µM (inactive) | > 75 µM (inactive) | > 75 µM (inactive) | > 75 µM (inactive) | > 75 µM (inactive) | > 75 µM (inactive) | > 75 µM (inactive) | > 75 µM (inactive) | > 75 µM (inactive) | > 75 µM (inactive) | – | > 75 µM |
| COC(=O)[C@@]12OC[C@]34C([C@@H](O)C1O)[C@@]1(C)CC(=O)C(O)=C(C)C1C[C@H]3OC(=O)[C@H](OC(=O)CC(C)C(F)(F)F)[C@H]42 (some centres not stated) | 0.0105 µM (active) | 0.0105 µM (active) | 0.0771 µM (active) | 0.0231 µM (active) | – | 0.146 µM (active) | 0.0108 µM (active) | 0.0445 µM (active) | 0.0989 µM (active) | 0.012 µM (active) | 0.00748 µM (active) | 0.0514 µM (active) | 0.0164 µM (active) | 0.149 µM (active) | 0.00542 µM (active) | 0.0205 µM (active) | 0.0125 µM (active) | 0.166 µM |
| Cc1ccc(/N=C/c2ccc3c(c2)OCO3)cc1C | – | > 100 µM (inactive) | > 100 µM (inactive) | > 100 µM (inactive) | > 100 µM (inactive) | > 100 µM (inactive) | > 100 µM (inactive) | > 100 µM (inactive) | – | > 100 µM (inactive) | > 100 µM (inactive) | > 100 µM (inactive) | > 100 µM (inactive) | > 100 µM (inactive) | > 100 µM (inactive) | 8.13 µM (inactive) | > 100 µM (inactive) | > 100 µM |
| O=C1NN=CN2C(=O)CCC12 (configuration not stated) | > 100 µM (inactive) | > 100 µM (inactive) | > 100 µM (inactive) | > 100 µM (inactive) | > 100 µM (inactive) | – | – | > 100 µM (inactive) | > 100 µM (inactive) | > 100 µM (inactive) | > 100 µM (inactive) | > 100 µM (inactive) | > 100 µM (inactive) | > 100 µM (inactive) | > 100 µM (inactive) | > 100 µM (inactive) | > 100 µM (inactive) | > 100 µM |
